Test [1] deals with IL-1β. The test is described as follows: IL-1β cytokine in LPS-induced sepsis mouse model. Type of test: in vivo, C57BL/6J mice. To be noted: for IL-1β: given 30 minutes before LPS (10 mg/kg i.p.), serum 2 hours after LPS. As to the method: (§1) The purpose of this study was to investigate and evaluate the inhibitory effect of the test compound on […] and IL-18 cytokine production in a mouse model of lipopolysaccharide (LPS)-induced sepsis.
(§2) 6-8 weeks female C57BL/6J mice, randomized, 5 animals in the Naïve group, and the rest of the groups (vehicle group, 15 mg/kg group with embodiment 33 compound, 50 mg/kg group with embodiment 33 compound and 150 mg/kg group with embodiment 33 compound, wherein 15 mg/kg, 50 mg/kg and 150 mg/kg is the dosage of embodiment 33, mg/kg is referred to as mpk) 10 animals per group. Among them, the Naïve group was not stimulated with LPS, and the 10 mice in each group were intraperitoneally injected with LPS (10 mg/kg) to induce sepsis model in the mouse. The vehicle (corresponding to the vehicle group) and the test compound (corresponding to the 15mpk group of Example 33, the 50mpk group of Example 33 and the 150mpk group of Example 33 respectively) were administered 30 minutes before LPS stimulation. 2 hours after LPS stimulation, the mice were euthanized, and whole blood was collected from the heart and placed in EP tubes, left to stand at room temperature for 1 hour, and centrifuged at 8000 rpm for 10 minutes to collect serum for measurement of cytokines IL-10 and IL-18.
For the standard pellet in the IL-10 cytokine CBA kit, put the IL-10 standard pellet into a 15 mL centrifuge tube, add 4 mL of Assay Diluent, and let it stand at room temperature for more than 15 minutes; • After the supernatant sample is melted and mixed evenly, the supernatant is diluted 2 times; • Preparation of standard reagent: Add the diluent Assay Diluent in advance to the 96-well V-shaped bottom plate, 100 μL/well. Add 200 μL of the standard that has been left to stand for 15 minutes into the well plate, and add 100 μL each time to the diluent in sequence. Gradually dilute the standard to 11 gradients (double dilution each time). The 12th hole is used as Blank, 200 μL/well; • Preparation of Capture beads reagent: Take the capture beads in the IL-10 cytokine CBA kit and vortex for 30 seconds. Prepare the Beads as follows: 60 μL IL-10 beads+2440 μL capture beads diluent (60 wells); mix evenly, 50 μL/well, add it to a […] V-bottom plate; shake at 200 g for 5 minutes, and incubate at room temperature for 1 hour; • Preparation of Detection reagent: Take the PE Detection from the IL-10 cytokine CBA kit and vortex for 30 seconds. Prepare the PE as follows: 60 μL IL-10 Detection+2440 μL PE detection diluent; mix evenly. […]

Test [2] relates to IL-18. Kind of test: IL-18 cytokine in LPS-induced sepsis mouse model. Type of test: in vivo, C57BL/6J mice. To be noted: for IL-18: given 30 minutes before LPS (10 mg/kg i.p.), serum 2 hours after LPS. As to the method: as §1, §2
After the kit is taken out of the refrigerator, it should be equilibrated at room temperature (25-28° C.) for 20 minutes; the remaining reagents should be stored at 4° C. immediately after each test.
Prepare an appropriate amount of standard diluent: dilute the standard diluent (5×) to 1× with double-distilled or deionized water. For example, add 10 mL of standard diluent (5×) to 40 mL of water and mix well to obtain a 1× standard. Diluent.
Prepare an appropriate amount of washing liquid: Dilute the washing liquid (20×) with double-distilled or deionized water to 1×. For example, add 10 mL of washing liquid (20×) to 190 mL of water and mix well to obtain a 1×washing liquid.
Standard preparation: Add the standard diluent to one bottle of standard according to the volume (0.5 mL) marked on the standard label, incubate at room temperature for 15 minutes, then mix gently and pipet several times with a pipette to completely dissolve the standard. The final concentration of the standard reaches 1500 pg/mL. Take […] 1.5 mL centrifuge tubes, add 250 μL of standard diluent to each tube in advance, and perform dilutions of the standard to obtain a total of 1500, 750, 375, 187.5, 93.75, 46.875, and 23.4375 pg/mL. standard concentration, and finally add the diluted standard to the pre-coated plate wells in sequence, and add the standard diluent directly as a concentration of 0 pg/mL, for a total of 8 standard concentrations. […]

Each structure is given as a SMILES string.

On to `Cc1nc(N[C@@H]2CCCC[C@H]2O)nnc1-c1ccc(C(F)(F)F)cc1O` [Embodiment 33], for which the IL-1β in test [1] (15 mpk) is recorded as 310.1 ± 32.88; in test [1] (50 mpk), 213.4 ± 25.66; in test [1] (150 mpk) it was 19.36 ± 5.166. Also, the “inhibitory effect on IL-1β compared with the Vehicle group” value in test [1] (three dose groups (15, 50, 150 mg/kg)) was “significant inhibitory effect”. The results for the IL-18 in test [2] (15 mpk), in test [2] (50 mpk) and in test [2] (150 mpk) were 560.5 ± 46.39, 320.1 ± 29.69 and 216.2 ± 9.238, respectively. Further, the “inhibitory effect on IL-18 compared with the Vehicle group” value in test [2] (two doses of 50 mg/kg and 150 mg/kg) was “significant inhibitory effect”.

The values are drawn from patent US20250002470A1, “NITROGEN-CONTAINING COMPOUND, PREPARATION METHOD THEREFOR AND APPLICATION THEREOF” (ZHEJIANG AIXPLORER BIOTECH CO., LTD., priority 2021, published 2025).
